From patent US8710064B2, “2-aryl-4-quinazolinones and their pharmaceutical compositions” (China Medical University, priority 2011, dated 2014)

How the values were obtained:
H460 = assay: trypan blue exclusion assay, H460 cells; type: cell-based; conditions: NCI-H460, H460 human non-small cell lung cancer
Protocol: (§1) Hep3B (human hepatocellular carcinoma) and H460 (lung non-small carcinoma) cells were grown in monolayer culture in Dulbecco's modified Eagle's medium (DMEM) (Life Technologies, Rockville, Md., USA) containing 5% fetal bovine serum (HyClone, Logan, Utah, USA), 100 U/ml penicillin and 100 μg/ml streptomycin (Gibco BRL, Rockville, Md., USA) and 2 mM glutamine (Merck, Darmstadt, Germany).
(§2) Cell viability was also determined by trypan-blue exclusion assay. Cells were seeded in 6-well plates (2×10^4/well) for trypan blue exclusion assay, and incubated for 24 hours at 37° C. Culture medium containing test compound or DMSO (0.006%) was added to each well, and cells were incubated at 37° C. At indicated time points (0, 24, 48, 72 and 96 hr), cells were suspended with 0.05% trypsin-EDTA, and stained with trypan-blue dye (0.4%) (Sigma). The cell viability was evaluated by the percentage of death relative to the total cell, and cell growth curve was determined by number of live cells relative to the total number of cells.
(§3) The anti-proliferation effects of Compounds 17-31 on M21, CH27, H460, Hep3B and HSC-3 cells were evaluated by the trypan blue exclusion assay.

Hep3B = assay: trypan blue exclusion assay, Hep3B cells; type: cell-based; conditions: Hep3B human hepatoma
Protocol: as §1, §2, §3

HT29-5FUR cells = assay: MTT cell viability assay, HT29-5FUR cells; type: cell-based, human; conditions: 25, 50, 100 and 200 nM for 24 and 48 hours
Protocol: HT29-5FUR cell line (human colon adenocarcinoma) provided by Dr. Jai-Sing Yang (China Medical University, Taiwan) was cultured in RPMI-1640 medium (Invitrogen, Carlsbad, Calif., USA) supplemented with 10% fetal bovine serum, 2 mM L-glutamine, 100 U/ml penicillin, and 100 μg/ml streptomycin.
Cells (1×10^4 cells/well) in 96-well plates were exposed to test MJ-66, and 0.1% DMSO in media served as a vehicle control. After 24 and 48 hr-incubations, […] MTT (0.5 mg/mL) solution was added to each well, the plate was incubated at 37° C. for 4 hours. Then, […] 0.04 N HCl in isopropanol was added and the absorbance at 570 nm was measured for each well. The cell survival rate was expressed as % of control. All results were performed from three independent experiments.
The growth inhibition effects of MJ-66 on HT29-5FUR cells were investigated. For cell viability assay, HT29-5FUR cells were cultured and treated with 0, 25, 50, 100 and 200 nM MJ-66 and the percentages of viable cells were detected by MTT assay described in “General materials and methods”.

U87 glioma cells [1] = assay: trypan blue exclusion cell death assay, U87 glioma cells; type: cell-based, human; conditions: 60 nM, at the 48th hour, p<0.05 versus control
Protocol: as §2
To investigate the glioma cell death induced by MJ-66, cell viability was assessed by trypan blue exclusion assay. C6 and U87 glioma cells treated with MJ-66 (30, 60, 90 nM) or DMSO (0.009%) for 0, 24, 48, 72 and 96 hours (hr) were observed under bright field microscope (FIG. 4A). The percentages of cell death and cell growth curve were determined by trypan blue assay followed by cell counting (mean±SEM, n=3). Relative to total cell number, trypan blue positive cells were defined as dead cells.

U87 glioma cells [2] = assay: immunofluorescent staining, confocal microscopy; type: cell-based, human; conditions: 60 nM, 24 hours
Protocol: 2×10^4 cells were seeded on the PDL-coating 12 mm-glass coverslips in 24-well plate and allowed to attach for 24 hours at 37° C. Culture medium containing MJ-66 (IC50) or DMSO (0.006%) was added, and cells were incubated at 37° C. At indicated time points (0, 12 and 24 hr), cells were fixed in 4% paraformaldehyde (PFA) in PBS for 30 minutes. After permeabilized by 0.2% Triton X-100 in 0.1 M PBS for 10 minutes and 10% methanol containing 0.2% Triton X-100 in 0.1 M PBS for 5 minutes, cells were blocked in 3% bovine serum albumin (BSA, Sigma) for 1 hour. The cells were immunostained for mitotic spindle with mouse monoclonal alpha-tubulin (Sigma-Aldrich), and mitotic center with rabbit polyclonal gamma-tubulin (Genetex), and then stained with appropriated secondary antibodies conjugated with Texas Red or FITC for 1 hr. […] Fluorescence images were detected by confocal laser scanning microscope (FV1000, Olympus).
To observe the morphology of MJ-66-treated glioma cells, C6 or U87 glioma cells were treated with medium or 60 nM MJ-66 for 24 hours and stained with Hoechst 33342 and antibodies against alpha-tubulin conjugated with FITC or antibodies against gamma-tubulin conjugated with FITC in combination with antibodies against alpha-tubulin conjugated with Texas Red were detected by confocal laser scanning microscope. […]

SMILES: O=c1[nH]c(-c2cccc3ccccc23)nc2ccc(N3CCCC3)cc12 [Compound 23, 6-(Pyrrolidin-1-yl)-2-(naphthalen-1-yl)quinazolin-4-one]
- IC50 (H460): 75 nM
- IC50 (Hep3B): 1350 nM
- cell number of HT29-5FUR relative to control (HT29-5FUR cells): dose-dependent decreases
- percentage of dead cells, U87 (U87 glioma cells [1]): significantly induced
- nuclear morphology of U87 glioma cells (U87 glioma cells [2]): abnormal nuclear phenotype
